# Source: PubChem BioAssay AID449764 (Southern Research Specialized Biocontainment Screening …, 2010)
# Test system: Mycobacterium tuberculosis H37Rv growth inhibition, no glycerol
# Experiment: Mycobacterium tuberculosis H37Rv growth inhibition, no glycerol, confirmatory dose response (AID 449764);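 also: growth read after 7 days of incubation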
# Conditions: for IC90: measured here: IC90 growth inhibition
Structure (SMILES),IC50 [µM],IC90 [µM]
COc1ccc(/C=N/Nc2nncn2N)cc1Br,10.5,13
O=C(NCC(c1cccs1)N1CCOCC1)c1cc([N+](=O)[O-])cc([N+](=O)[O-])c1 (centres undefined),0.81,1.5
COc1cc(OC)c(OC)cc1CCC(C)NCCC(c1ccccc1)c1ccccc1 (centres undefined),23.4,26.7
CSc1nsc(SCC(=O)Nc2ccc(F)cc2F)n1,88.7,98.9
O=c1c2cc(Br)cc(Br)c2oc2nc3n(c(=O)c12)CCCS3,10.4,23.3
Cc1ccc(NC(=O)COc2ccccc2CNC(C)(C)CC(C)(C)C)cc1,24.6,36.2
COc1ccc(C2CC2/C(C)=N/OC(=O)c2ccc(F)cc2)cc1 (centres undefined),25.3,52.2
CCOC(=O)CNC(=O)c1sc2ncnc(N3CCc4ccccc4C3)c2c1C,79.1,97.7
CCOc1ncccc1C(=O)OCC(=O)N1CCc2ccccc21,25.5,> 100
CC(=O)Nc1ccc(N2C(C(C)=O)=NN(c3ccc(Cl)cc3)C2c2sccc2C)cc1 (centres undefined),66.6,83.9
Cc1cccc(/C=C/c2onc(C)c2[N+](=O)[O-])n1,20.2,26.8
CN1C(=O)N(C)c2ccc(C=O)c3cccc1c23,45.5,51.4
CNC[C@H](Cc1cccc2ccccc12)NC[C@H](CCSC)NCC1CCC(C(C)(C)C)CC1 (some centres undefined),42.6,47.1
Cc1ccccc1Cn1cc(NC(=O)c2noc(C(C)C)c2[N+](=O)[O-])cn1,5.01,8.45
Cc1cc(OCc2cc(C(=O)N(C)CCc3cnn(C)c3)no2)cc(C)c1Cl,34.5,56.2
COC(=O)C(C)Oc1ccc2c(c1)O/C(=C\c1ccco1)C2=O (centres undefined),11.3,17.2
CCc1c(C)sc(NC(=S)N2CCN(CC)CC2)c1C(=O)OC,13.3,> 25
COc1ccc(-c2oc(NC(=O)CCl)c(C#N)c2-c2ccc(OC)cc2)cc1,43,61.7
CN1OC(COC(=O)c2ccc(Cl)cc2Cl)CC1c1ccccc1 (centres undefined),7.6,22.3
COC(=O)[C@@H](NC(=O)c1cc(COc2cncc(Cl)c2)on1)c1ccccc1,2.93,3.31
OC(CNCC(c1ccc(Cl)cc1Cl)c1c[nH]c2ccccc12)c1ccccc1 (centres undefined),22.9,26.2
Cc1ccc(C2=NN(C)c3nc4ccccc4n3C2)cc1,59.3,> 100

Structure (SMILES),IC50 [µM],IC90 [µM]
CCOC(=O)CNc1ccc(C(=O)OCC)cc1[N+](=O)[O-],18.1,> 100
COc1ccc(C(=O)Cn2nc(CNc3ccc(Br)cc3)[n+]3c2CCCCC3)cc1,12.3,14.1
CCOC(=O)CSc1nnc(-c2c[nH]c3ccccc23)o1,8.61,22.1
Nc1nonc1C(=O)NCCNCc1c(OCc2ccccc2F)ccc2ccccc12,39.5,54.4
CC(C)COCc1ccc(O)c2ncccc12,2.18,2.59
CCOc1ccc(-c2cc(CCCC(=O)NCCC(C)C)no2)cc1,22.6,25.7
CN(C)c1ccnc2c[cH-]cc12.[Fe].c1ccc(-[c-]2[c-](-c3ccccc3)[c-](-c3ccccc3)[c-](-c3ccccc3)[c-]2-c2ccccc2)cc1 (centres undefined),14.3,19
Cc1ncc(C23CC4CC(CC(C4)C2)C3)[nH]1,76.1,96.7
CCc1nnc(N/N=C/c2cc(C)c(C)cc2C)n1N,5.95,6.55
COc1ccccc1OCCN1CSC(=S)N(C)C1,17.8,23.9
Cc1ccc(N(CCC#N)C(=O)CCl)cc1C,5.11,8.42
CCc1ccc2nc(N(CCCN(C)C)C(=O)c3ccc(S(=O)(=O)N4CCCc5ccccc54)cc3)sc2c1,35,41
C(=N\Nc1ncnc2sc3c(c12)CCC3)/c1cccs1,36.9,54.2
Cc1c(Cl)cccc1-c1ccc(CNCc2ccccn2)o1,4.66,13.6
Cc1cc2c(cc1C)/C(=N/NC(=O)c1ccccn1)CCC2,24.2,53.6
CC(c1nc2ccccc2c(=O)[nH]1)N(C)CCOc1ccc(Cl)cc1 (centres undefined),40.7,55.5
Cc1nc(SCC(=O)NCC2CCCO2)c2c3c(sc2n1)CCCC3 (centres undefined),23,25.2
CC(C)(C)OC(=O)NNc1c2ccccc2nc2ccccc12,22.6,25.2
Cc1ccc2c(c1)c(C1=c3ccccc3=NC1=O)c(O)n2C,2.95,4.82
CCOC(=O)Oc1c(OC)cc(C(=O)O[C@@H]2C[C@@H]3CN4CCc5c([nH]c6cc(OC)ccc56)[C@H]4C[C@@H]3[C@H](C(=O)OC)[C@H]2OC)cc1OC,26.5,39.1
Cc1ccc(Cn2nnnc2CN2CCC(c3nc4ccc(Cl)cc4[nH]3)CC2)cc1,31,40.8
C[C@@H]1CCCCCCCCC(=O)OCCN[C@H](C)CCCCCCCCC(=O)OCCN[C@H](C)CCCCCCCCC(=O)OCCN1,31.8,43.3

Structure (SMILES),IC50 [µM],IC90 [µM]
O=S(=O)(c1ccc(Cl)cc1)c1snnc1-c1ccccc1,18.8,29.9
Clc1ccc(CCC(Cn2ccnc2)Sc2c(Cl)cccc2Cl)cc1 (centres undefined),11.8,13.3
COc1cc2c(cc1OC)C(c1cc(Br)ccc1F)N(C(=O)CCl)CC2 (centres undefined),16.6,23
CCN(CC)CCOC(=O)c1ccc(N/C=C(/C#N)c2nc(-c3ccc4c(c3)OCO4)cs2)cc1,62.2,> 100
Clc1ccc(NNc2ccnc3cc(Cl)ccc23)cc1,15.4,19.9
CC(=O)N1CCN(c2ccc(Oc3ccc([N+](=O)[O-])c(C(F)(F)F)c3)cc2)CC1,93.5,> 100
OCCCNc1cc(-c2ccnc(Nc3cccc(Cl)c3)n2)ccn1,73.3,96
c1ccc2nc(-c3ccc(-n4ccnc4)cc3)ccc2c1,31,42.5
CCCc1ccc(NC(=O)C2CCN(c3cnccn3)CC2)cc1,67.2,82.7
CCCCCCCCCCC[N+](C)(C)CC/C=C1/c2ccccc2Sc2ccc(Cl)cc21,8.03,9.28
Cc1ccc2c(c1)c(/C=C/c1cc[n+](C)cc1)c(C)n2C,5.82,6.61
Cc1ccc(-c2noc(-c3cc4ccccc4oc3=O)n2)cc1,11.4,> 100
Cc1ccc(C(=O)OCc2nnc(-c3ccccc3)o2)s1,20.4,32.2
Cc1ccc(C#CC[N+]2(CC#Cc3ccc(C)cc3)CCCCC2)cc1,21.4,24.8
Cc1cccc(NC(=O)CCSc2nnc(Cc3ccccc3)o2)c1,38.1,> 100
Oc1ccc(CN2CCc3ccccc3C2)c2cccnc12,72.7,> 100
CC1(C)Cc2c(sc(NC(=O)c3ccc(C(=O)c4ccccc4)cc3)c2C(N)=O)C(C)(C)N1,22.9,> 50
CCOC(=O)CSc1cc(=O)n(C)c2cc(Cl)ccc12,< 0.2,18.3
Cc1ccc(NC(=O)C2C3/C=C\CCCCC32)cc1C (centres undefined),2.97,4.49
C(C#CCCCCCCCCC[n+]1ccccc1)#CCCCCCCCCC[n+]1ccccc1,4.02,6.85
COc1cccc(-c2nnc(NC(=O)c3ccc(S(=O)(=O)N4CCOCC4)cc3)o2)c1,32.4,46
CCN1CCN(CCCNC(=O)c2ccc(/C=C3/Oc4ccccc4N(Cc4cccc(C)c4)C3=O)cc2)CC1,45.2,48.1

Structure (SMILES),IC50 [µM],IC90 [µM]
CN1CCN(c2ccc(S(=O)(=O)N3CCCCC3)cc2NC(=O)/C=C/c2ccc(Cl)c([N+](=O)[O-])c2)CC1,34.9,47.6
Cc1cc(NC2CCCCC2)nc(-c2ccccc2O)n1,35.9,50.2
Cc1nn(Cc2ccccc2)c(C)c1NC(=O)c1cc2nc(-c3ccco3)cc(C(F)(F)F)n2n1,45.8,49.6
Cc1cc(NC(=O)CCl)no1,2.63,5.19
Cc1ccc(Nc2nc(CSc3nnc(-c4cccs4)o3)cs2)cc1,43.3,> 100
CC(=O)N1CCN(c2ccc(OC[C@H]3CO[C@](Cn4ccnc4)(c4ccc(Cl)cc4Cl)O3)cc2)CC1,14.6,20.8
CCCOP(=O)(OCCC)c1c([N+](=O)[O-])cc(C(F)(F)F)cc1[N+](=O)[O-],5.5,7.7
CN(C)CCNc1ncnc2c1sc1nc(-c3ccccc3)c3c(c12)CCCC3,22.5,24.2
CC(C)(C)Nc1nc(NC(C)(C)C)nc(-n2ccnc2)n1,59.9,98.5
CCOc1ccc(-n2cc(-c3ccccc3)c3c(=O)[nH]cnc32)cc1,84,> 100
N#CC(C#N)=C(N)CSc1cccc[n+]1[O-],43.6,49
CCc1cc2c(=O)c(-c3cnn(-c4ccccc4)c3)c(C)oc2c(CN2CCCCC2)c1O,32.4,52.4
CCCc1cc(-c2nc(-c3ccc(Br)cc3)cs2)ccn1,16.4,24.6
CCn1cc([N+](=O)[O-])c(C(=O)N2N=C(c3ccc4ccccc4c3)CC2c2ccccc2O)n1 (centres undefined),50.1,> 100
CN1CCN(Cn2cc(/C=C/C(=O)c3ccccc3)c3ccccc32)CC1,19.8,39.3
Cc1cc(=O)oc2c(C)c(OCC(=O)N3CCN(C(=O)C4COc5ccccc5O4)CC3)ccc12 (centres undefined),77.1,> 100
O=C(N/N=C\C=C\c1ccc([N+](=O)[O-])o1)c1cccs1,10.8,15.1
COc1ccc(N2CCN(C(=O)c3ccc(CNc4c(N5CCOCC5)c(=O)c4=O)cc3)CC2)cc1,2.96,3.24
CSc1nc2nc3c(c(=O)n2[nH]1)CCCC3,23.8,> 100
Cc1[nH]c2ccccc2c1C(=O)COC(=O)c1ccc([N+](=O)[O-])s1,1.32,3.24
Cc1cc(C(=O)CCl)c(C)n1-c1cccc([N+](=O)[O-])c1,2.42,6.49
